Results taken from ChEMBL document CHEMBL5038629, “Light-Triggered Fluorescence Self-Reporting Nitric Oxide Release from Coumarin Analogues for Accelerating Wound Healing and Synergistic Antimicrobial Applications” (J Med Chem, 2022).
Activity calls are given as the source filed them. The calls are words filed in the database; no cut-off is given here.

Key:
[1] = system: Staphylococcus aureus; assay: Inhibition of biofilm formation in methicillin-resistant Staphylococcus aureus assessed as biofilm dispersal effect at 10 uM incubated for 5 hrs followed by exposure to UV light irradiation for 1 min by crystal violet staining based analysis; type: functional; parameters: scale not given: the % may be the effect or the level left; details: time 301 min, 5.017 h
[2] = system: Staphylococcus aureus; assay: Inhibition of biofilm formation in methicillin-resistant Staphylococcus aureus assessed as decrease in biofilm mass at 10 uM upon exposure to UV light irradiation and measured after 48 hrs by dilution plate coating method; type: functional; details: light or radiation study
[3] = system: Staphylococcus aureus; assay: Inhibition of biofilm formation in methicillin-resistant Staphylococcus aureus assessed as decrease in biofilm mass at 10 uM upon exposure to UV light irradiation and measured after 48 hrs in presence of levofloxacin by dilution plate coating method; type: functional; details: light or radiation study
[4] = Stability of the compound in human L02 cells at 10 uM by DAQ probe based fluorescence analysis; type: ADME, cell-based; details: l02, 10 µM
[5] = NO releasing activity in MeOH solvent upon exposure to UV light irradiation by fluorescence based analysis; type: functional
[6] = system: HUVEC; assay: Induction of angiogenesis in human HUVEC cells assessed as increase in tube formation upon exposure to UV light irradiation measured after 24 hrs; type: functional, cell-based
[7] = NO releasing activity assessed as NO release efficiency at 60 uM by Griess assay relative to NaNO2; type: functional
[8] = NO releasing activity upon exposure to UV light irradiation in presence of Trp by fluorescence based analysis; type: functional
[9] = system: L02; assay: Induction of angiogenesis in human L02 cells assessed as increase in cell proliferation upto 60 uM upon exposure to UV light irradiation and measured after 8 hrs by CCK8 assay; type: functional, cell-based; details: dose microM <=60, time 8.0 hrs
[10] = NO releasing activity in PBS buffer of 20% DMSO at 20 uM upon exposure to UV light irradiation by amperometric method; type: functional
[11] = NO releasing activity upon exposure to UV light irradiation in presence of Asp by fluorescence based analysis; type: functional
[12] = NO releasing activity assessed as increase in fluorescence intensity upon exposure to UV light at 0 to 18 uM by fluorescence based analysis; type: functional; details: dose 0-18 µM
[13] = system: Staphylococcus aureus; assay: Inhibition of biofilm formation in methicillin-resistant Staphylococcus aureus assessed as biofilm dispersal effect at 10 uM incubated for 5 hrs followed by exposure to UV light irradiation for 1 min in presence of levofloxacin by crystal violet staining based analysis; type: functional; parameters: scale not given: the % may be the effect or the level left; details: time 301 min, 5.017 h
[14] = NO releasing activity in IPA solvent upon exposure to UV light irradiation by fluorescence based analysis; type: functional
[15] = system: RAW264.7; assay: Induction of angiogenesis in mouse RAW264.7 cells assessed as increase in cell proliferation upto 60 uM upon exposure to UV light irradiation and measured after 8 hrs by CCK8 assay; type: functional, cell-based; details: dose microM <=60, time 8.0 hrs
[16] = NO releasing activity in DMSO solvent upon exposure to UV light irradiation by fluorescence based analysis; type: functional
[17] = NO releasing activity upon exposure to UV light irradiation at 50 to 70 degC measured after 4 to 8 hrs by fluorescence based analysis; type: functional; details: time 4-8 hrs
[18] = NO releasing activity upon exposure to UV light irradiation in presence of NaSO4 by fluorescence based analysis; type: functional
[19] = system: HepG2; assay: NO releasing activity in human HepG2 cells assessed as increase in red fluorescence intensity at 10 uM upon exposure to UV light irradiation for 10s by DAQ probe based fluorescence analysis; type: ADME, cell-based; details: hepg2, 10 s
[20] = system: L02; assay: NO releasing activity in human L02 cells assessed as increase in red fluorescence intensity at 10 uM upon exposure to UV light irradiation for 10s by DAQ probe based fluorescence analysis; type: ADME, cell-based; details: l02, 10 s
[21] = NO releasing activity assessed as NO release efficiency at 100 uM by Griess assay relative to NaNO2; type: functional
[22] = NO releasing activity assessed as NO release efficiency at 40 uM by Griess assay relative to NaNO2; type: functional
[23] = system: Mus musculus; assay: Acceleration of wound healing in methicillin-resistant Staphylococcus aureus infected CD1 mouse assessed as increase in wound healing rate using UV light-irradiated compound at 10 uM, sc on days 0, 3, 7 and 14 in presence of 10 uM levofloxacin; type: functional, organism-based; details: time 15.0 day
[24] = system: Staphylococcus aureus; assay: Antibacterial activity against methicillin-resisitant Staphylococcus aureus assessed as wrinkled bacterial membrane formation at 10 uM incubated for 5 hrs followed by exposure to UV light irradiation for 1 min in presence of levofloxacin by scanning electron microscopy; type: functional, organism-based; details: time 301.0 min
[25] = NO releasing activity upon exposure to UV light irradiation in presence of HClO by fluorescence based analysis; type: functional
[26] = NO releasing activity assessed as increase in fluorescence intensity at 420 nm upon exposure to UV light measured after 0 to 5 mins by fluorescence based analysis; type: functional; details: time 0-5 min
[27] = NO releasing activity upon exposure to UV light irradiation in presence of Ala by fluorescence based analysis; type: functional
[28] = NO releasing activity in TCM solvent upon exposure to UV light irradiation by fluorescence based analysis; type: functional
[29] = system: Staphylococcus aureus; assay: Inhibition of biofilm formation in methicillin-resistant Staphylococcus aureus assessed as increase in planktonic bacteria at 10 uM upon exposure to UV light irradiation and measured after 48 hrs by NB plate based imaging analysis; type: functional, organism-based
[30] = NO releasing activity in CAN solvent upon exposure to UV light irradiation by fluorescence based analysis; type: functional
[31] = NO releasing activity upon exposure to UV light irradiation in presence of […] by fluorescence based analysis; type: functional
[32] = system: HUVEC; assay: Cytotoxicity against human HUVEC cells assessed as reduction in cell viability upto 60 uM measured after 8 hrs by CCK8 assay; type: functional, cell-based; details: dose microM <=60, time 8.0 hrs
[33] = Toxicity in methicillin-resistant Staphylococcus aureus-infected CD1 mouse assessed as change in body weight using UV light-irradiated compound at 10 uM, sc on days 0, 3, 7 and 14; type: organism-based; details: in vivo, 360 h, time 15 day
[34] = NO releasing activity assessed as increase in fluorescence intensity upon exposure to UV light at 1 to 10 uM measured after 30 mins by fluorescence based analysis; type: functional; details: dose 1-10 µM
[35] = NO releasing activity assessed as NO release efficiency at 20 uM by Griess assay relative to NaNO2; type: functional
[36] = NO releasing activity at 20 uM upon exposure to UV light irradiation for 5 mins by EPR spectroscopy; type: functional
[37] = NO releasing activity in Tol solvent upon exposure to UV light irradiation by fluorescence based analysis; type: functional
[38] = NO releasing activity in Diox-solvent upon exposure to UV light irradiation by fluorescence based analysis; type: functional
[39] = NO releasing activity upon exposure to UV light irradiation in presence of Cys by fluorescence based analysis; type: functional
[40] = system: Mus musculus; assay: Acceleration of wound healing in methicillin-resistant Staphylococcus aureus infected CD1 mouse assessed as boosted collagen deposition and granulation tissue in skin using UV light-irradiated compound at 10 uM, sc on days 0, 3, 7 and 14 in presence of levofloxacin and measured on day 14 by H and E staining based analysis; type: functional, organism-based; details: time 15.0 day
[41] = system: Staphylococcus aureus; assay: Inhibition of biofilm formation in methicillin-resistant Staphylococcus aureus assessed as increase in planktonic bacteria at 10 uM upon exposure to UV light irradiation and measured after 48 hrs in presence of levofloxacin by NB plate based imaging analysis; type: functional; parameters: scale not given: the % may be the effect or the level left
[42] = system: L02; assay: Cytotoxicity against human L02 cells assessed as reduction in cell viability upto 60 uM measured after 8 hrs by CCK8 assay; type: functional, cell-based; details: dose microM <=60, time 8.0 hrs
[43] = system: Mus musculus; assay: Induction of angiogenesis in methicillin-resistant Staphylococcus aureus infected CD1 mouse assessed as increase in CD31 surface expression in skin by measuring increase in green fluorescence intensity using UV light-irradiated compound at 10 uM, sc on days 0, 3, 7 and 14 in presence of levofloxacin and measured on day 14 by immunofluorescence staining based analysis; type: functional, organism-based; details: time 15.0 day
[44] = system: HUVEC; assay: Induction of angiogenesis in human HUVEC cells assessed as increase in cell proliferation upto 60 uM upon exposure to UV light irradiation and measured after 8 hrs by CCK8 assay; type: functional, cell-based; details: dose microM <=60, time 8.0 hrs
[45] = system: Mus musculus; assay: Acceleration of wound healing in methicillin-resistant Staphylococcus aureus infected CD1 mouse assessed as boosted collagen deposition and granulation tissue in skin using UV light-irradiated compound at 10 uM, sc on days 0, 3, 7 and 14 and measured on day 14 by H and E staining based analysis; type: functional, organism-based; details: time 15.0 day
[46] = Stability of the compound in human HepG2 cells at 10 uM by DAQ probe based fluorescence analysis; type: ADME, cell-based; details: hepg2, 10 µM
[47] = NO releasing activity in DMK solvent upon exposure to UV light irradiation by fluorescence based analysis; type: functional
[48] = system: RAW264.7; assay: Cytotoxicity against mouse RAW264.7 cells assessed as reduction in cell viability upto 60 uM measured after 8 hrs by CCK8 assay; type: functional, cell-based; details: dose microM <=60, time 8.0 hrs
[49] = system: HUVEC; assay: Induction of angiogenesis in human HUVEC cells assessed as increase in cell migration rate upon UV light irradiation and measured after 12 to 24 hrs by cell scratch test; type: functional, cell-based; details: time 12-24 hrs
[50] = NO releasing activity upon exposure to UV light irradiation at pH 4 to 8 by fluorescence based analysis; type: functional
[51] = NO releasing activity upon exposure to UV light irradiation in presence of Ser by fluorescence based analysis; type: functional
[52] = Photolysis of compound in DMSO/PBS assessed as 4-methyl-7-(2-nitrobenzylamino)-2H-chromen-2-one and AMC formation along with NO release upon exposure to UV light and measured after 30 mins by HPLC analysis; type: functional
[53] = NO releasing activity in EA solvent upon exposure to UV light irradiation by fluorescence based analysis; type: functional
[54] = NO releasing activity upon exposure to UV light irradiation in presence of Phe by fluorescence based analysis; type: functional
[55] = NO releasing activity at 100 uM upon exposure to UV light irradiation by DAF-2 probe based fluorescence analysis; type: functional
[56] = NO releasing activity upon exposure to UV light irradiation in presence of GSH by fluorescence based analysis; type: functional
[57] = Photolysis of compound in DMSO/PBS assessed as 4-methyl-7-(2-nitrobenzylamino)-2H-chromen-2-one and AMC formation along with NO release upon exposure to UV light by mass spectrometry; type: functional
[58] = NO releasing activity upon exposure to UV light irradiation in presence of His by fluorescence based analysis; type: functional
[59] = NO releasing activity upon exposure to UV light irradiation in presence of Na2S by fluorescence based analysis; type: functional
[60] = NO releasing activity upon exposure to UV light irradiation at powers from 3 to 15 mW/cm2 by fluorescence based analysis; type: functional
[61] = NO releasing activity assessed as NO release efficiency at 80 uM by Griess assay relative to NaNO2; type: functional
[62] = NO releasing activity upon exposure to UV light irradiation in presence of Arg by fluorescence based analysis; type: functional
[63] = NO releasing activity assessed as NO release efficiency at 10 uM by Griess assay relative to NaNO2; type: functional
[64] = NO releasing activity upon exposure to UV light irradiation in presence of Hcy by fluorescence based analysis; type: functional

SMILES: C[C@H]1COc2c(N3CCN(C)CC3)c(F)cc3c(=O)c(C(=O)O)cn1c23.C[C@H]1COc2c(N3CCN(C)CC3)c(F)cc3c(=O)c(C(=O)O)cn1c23.O [LEVOFLOXACIN]
- Activity [1]: 15%
- inhibition at 10 µM [2]: 19%

SMILES: Cc1cc(=O)oc2cc(N(Cc3ccccc3[N+](=O)[O-])N=O)ccc12
- inhibition at 10 µM [3]: 54%
- Stability [4]: Stable
- Drug metabolism [5]: Metabolite detected
- Activity [6]: Active
- Drug metabolism [7]: 96.9%
- Drug metabolism [8]: Metabolite detected
- Activity [9]: Active
- Drug metabolism [10]: Metabolite detected
- Drug metabolism [11]: Metabolite detected
- Activity [1]: 15%
- Drug metabolism [12]: Metabolite detected
- Activity [13]: 74%
- Drug metabolism [14]: Metabolite detected
- Activity [15]: Active
- Drug metabolism [16]: Metabolite detected
- Drug metabolism [17]: Metabolite detected
- Drug metabolism [18]: Metabolite detected
- Drug metabolism [19]: Metabolite_Detected
- Drug metabolism [20]: Metabolite_Detected
- Drug metabolism [21]: 93%
- Drug metabolism [22]: 98.6%
- Activity [23]: Active
- Activity [24]: Active
- Drug metabolism [25]: Metabolite detected
- Drug metabolism [26]: Metabolite detected
- Drug metabolism [27]: Metabolite detected
- Drug metabolism [28]: Metabolite detected
- Activity [29]: Active
- Drug metabolism [30]: Metabolite detected
- Drug metabolism [31]: Metabolite detected
- Activity [32]: Active
- Activity [33]: Non-Toxic
- Drug metabolism [34]: Metabolite detected
- Drug metabolism [35]: 99.2%
- Drug metabolism [36]: Metabolite detected
- Drug metabolism [37]: Metabolite detected
- Drug metabolism [38]: Metabolite detected
- Drug metabolism [39]: Metabolite detected
- Activity [40]: Active
- Activity [41]: 160%
- Activity [42]: Active
- Activity [43]: Active
- Activity [44]: Active
- Activity [45]: Active
- Stability [46]: Stable
- Drug metabolism [47]: Metabolite detected
- Activity [48]: Active
- Activity [49]: Active
- Drug metabolism [50]: Metabolite detected
- Drug metabolism [51]: Metabolite detected
- Drug metabolism [52]: Metabolite detected
- Drug metabolism [53]: Metabolite detected
- inhibition at 10 µM [2]: 28%
- Drug metabolism [54]: Metabolite detected
- Drug metabolism [55]: Metabolite detected
- Drug metabolism [56]: Metabolite detected
- Drug metabolism [57]: Metabolite detected
- Drug metabolism [58]: Metabolite detected
- Drug metabolism [59]: Metabolite detected
- Drug metabolism [60]: Metabolite detected
- Drug metabolism [61]: 97.6%
- Drug metabolism [62]: Metabolite detected
- Drug metabolism [63]: 99%
- Drug metabolism [64]: Metabolite detected
